Columns and labels:
[1] = target: Activin receptor type-2B (Homo sapiens) (UniProt Q13705); assay: Inhibition of ACVR2B (unknown origin) assessed as residual activity at 1000 nM by KINOMEscan analysis relative to control
[2] = target: Wee1-like protein kinase (Homo sapiens) (UniProt P30291); assay: Inhibition of WEE1 (unknown origin) assessed as residual activity at 1000 nM by KINOMEscan analysis relative to control
[3] = target: Hepatocyte growth factor receptor (Homo sapiens) (UniProt P08581); assay: Inhibition of MET (unknown origin) assessed as residual activity at 1000 nM by KINOMEscan analysis relative to control
[4] = target: T1, Ephrin type-A receptor 6 (Homo sapiens) (UniProt Q9UF33); assay: Inhibition of EPHA6 (unknown origin) assessed as residual activity at 1000 nM by KINOMEscan analysis relative to control
T1 sequence (whole entry): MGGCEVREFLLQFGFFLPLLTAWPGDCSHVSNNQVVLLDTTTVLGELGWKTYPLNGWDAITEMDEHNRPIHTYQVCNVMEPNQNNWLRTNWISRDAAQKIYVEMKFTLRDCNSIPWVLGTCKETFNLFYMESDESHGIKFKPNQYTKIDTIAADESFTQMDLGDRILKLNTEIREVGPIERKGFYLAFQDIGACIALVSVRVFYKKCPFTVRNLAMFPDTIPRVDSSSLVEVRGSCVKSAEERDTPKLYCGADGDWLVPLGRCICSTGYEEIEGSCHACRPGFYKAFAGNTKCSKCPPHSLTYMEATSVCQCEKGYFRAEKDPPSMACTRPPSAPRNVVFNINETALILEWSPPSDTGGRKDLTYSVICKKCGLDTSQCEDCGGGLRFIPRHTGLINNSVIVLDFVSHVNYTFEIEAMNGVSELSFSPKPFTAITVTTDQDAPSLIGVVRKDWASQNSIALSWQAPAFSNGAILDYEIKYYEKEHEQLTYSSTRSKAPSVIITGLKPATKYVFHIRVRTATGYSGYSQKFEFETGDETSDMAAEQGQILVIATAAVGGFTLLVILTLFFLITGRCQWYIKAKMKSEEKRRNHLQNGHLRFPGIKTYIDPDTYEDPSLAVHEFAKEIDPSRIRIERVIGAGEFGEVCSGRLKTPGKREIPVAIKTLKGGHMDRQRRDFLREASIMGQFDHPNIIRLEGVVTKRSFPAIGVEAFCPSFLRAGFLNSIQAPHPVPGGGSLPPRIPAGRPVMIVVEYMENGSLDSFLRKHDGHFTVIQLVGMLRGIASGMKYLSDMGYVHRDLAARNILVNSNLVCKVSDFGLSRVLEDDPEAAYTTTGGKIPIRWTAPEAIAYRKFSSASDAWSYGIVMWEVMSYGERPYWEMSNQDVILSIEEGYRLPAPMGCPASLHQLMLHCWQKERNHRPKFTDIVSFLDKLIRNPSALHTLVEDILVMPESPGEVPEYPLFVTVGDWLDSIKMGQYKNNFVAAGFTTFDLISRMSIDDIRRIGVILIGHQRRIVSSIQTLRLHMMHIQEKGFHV

[5] = system: Tyrosine-protein kinase ABL1 (Homo sapiens), P00519 [T315I]; assay: Inhibition of phosphorylated ABL1 T315I mutant (unknown origin) assessed as residual activity at 1000 nM by KINOMEscan analysis relative to control
[6] = target: T2, NUAK family SNF1-like kinase 1 (Homo sapiens) (UniProt O60285); assay: Inhibition of ARK5 (unknown origin) assessed as residual activity at 1000 nM by KINOMEscan analysis relative to control
T2 sequence (whole entry): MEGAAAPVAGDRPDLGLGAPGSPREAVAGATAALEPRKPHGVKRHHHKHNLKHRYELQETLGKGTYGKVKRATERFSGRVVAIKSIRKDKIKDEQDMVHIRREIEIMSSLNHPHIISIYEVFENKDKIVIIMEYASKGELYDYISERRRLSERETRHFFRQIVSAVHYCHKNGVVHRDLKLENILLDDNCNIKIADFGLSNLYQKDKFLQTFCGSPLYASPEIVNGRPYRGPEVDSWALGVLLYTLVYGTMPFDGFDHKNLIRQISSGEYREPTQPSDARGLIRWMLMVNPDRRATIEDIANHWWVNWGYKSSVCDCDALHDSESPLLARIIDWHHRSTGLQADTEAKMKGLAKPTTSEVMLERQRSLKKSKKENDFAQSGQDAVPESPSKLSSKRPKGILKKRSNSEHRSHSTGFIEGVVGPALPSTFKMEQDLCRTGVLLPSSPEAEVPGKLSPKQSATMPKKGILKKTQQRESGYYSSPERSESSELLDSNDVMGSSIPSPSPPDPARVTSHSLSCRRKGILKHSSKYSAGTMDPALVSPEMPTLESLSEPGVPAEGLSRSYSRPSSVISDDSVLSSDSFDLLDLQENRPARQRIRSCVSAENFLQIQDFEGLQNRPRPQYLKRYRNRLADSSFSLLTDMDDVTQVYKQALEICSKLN

[7] = target: Dual specificity tyrosine-phosphorylation-regulated kinase 1A (Homo sapiens) (UniProt Q13627); assay: Inhibition of DYRK1A (unknown origin) assessed as residual activity at 1000 nM by KINOMEscan analysis relative to control
[8] = target: Cyclin-dependent kinase 17 (Homo sapiens) (UniProt Q00537); assay: Inhibition of PCTK2 (unknown origin) assessed as residual activity at 1000 nM by KINOMEscan analysis relative to control
[9] = system: Tyrosine-protein kinase ABL1 (Homo sapiens), P00519 [M351T]; assay: Inhibition of phosphorylated ABL1 M351T mutant (unknown origin) assessed as residual activity at 1000 nM by KINOMEscan analysis relative to control

Chain of Wee1-like protein kinase (Homo sapiens) (P30291 whole entry, looked up): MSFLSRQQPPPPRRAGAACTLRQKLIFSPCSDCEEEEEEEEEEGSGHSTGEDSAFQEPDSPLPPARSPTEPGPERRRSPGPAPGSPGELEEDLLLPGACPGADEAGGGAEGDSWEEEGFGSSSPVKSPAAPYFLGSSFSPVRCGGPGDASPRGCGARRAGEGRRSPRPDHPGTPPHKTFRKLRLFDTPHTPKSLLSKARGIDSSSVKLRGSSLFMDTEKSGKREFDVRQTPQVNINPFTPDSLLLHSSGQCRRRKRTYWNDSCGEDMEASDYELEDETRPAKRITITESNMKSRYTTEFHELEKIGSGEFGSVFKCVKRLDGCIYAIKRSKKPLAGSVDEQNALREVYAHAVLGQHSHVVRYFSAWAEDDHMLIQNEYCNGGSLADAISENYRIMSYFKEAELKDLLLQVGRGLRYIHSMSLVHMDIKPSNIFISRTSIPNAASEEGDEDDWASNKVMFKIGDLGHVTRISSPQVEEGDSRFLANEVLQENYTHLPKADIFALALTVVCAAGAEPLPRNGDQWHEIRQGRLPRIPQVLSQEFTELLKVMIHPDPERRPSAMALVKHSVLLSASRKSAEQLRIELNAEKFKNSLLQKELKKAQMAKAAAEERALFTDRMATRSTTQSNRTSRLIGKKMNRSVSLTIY
Chain of Activin receptor type-2B (Homo sapiens) (Q13705 whole entry): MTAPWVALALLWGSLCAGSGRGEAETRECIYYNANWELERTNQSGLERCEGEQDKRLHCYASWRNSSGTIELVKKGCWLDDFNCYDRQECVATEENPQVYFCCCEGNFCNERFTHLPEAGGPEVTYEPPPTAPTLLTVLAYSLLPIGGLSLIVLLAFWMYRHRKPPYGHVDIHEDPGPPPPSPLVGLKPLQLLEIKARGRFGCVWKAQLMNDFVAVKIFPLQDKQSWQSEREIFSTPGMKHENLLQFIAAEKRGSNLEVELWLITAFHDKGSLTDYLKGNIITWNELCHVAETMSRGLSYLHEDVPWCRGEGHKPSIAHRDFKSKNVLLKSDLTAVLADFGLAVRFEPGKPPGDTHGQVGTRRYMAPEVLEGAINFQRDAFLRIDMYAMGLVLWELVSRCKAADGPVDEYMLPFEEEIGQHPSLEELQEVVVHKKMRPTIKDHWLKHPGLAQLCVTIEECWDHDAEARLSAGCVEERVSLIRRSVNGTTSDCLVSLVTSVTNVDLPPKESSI
Chain of Cyclin-dependent kinase 17 (Homo sapiens) (Q00537 whole entry, looked up): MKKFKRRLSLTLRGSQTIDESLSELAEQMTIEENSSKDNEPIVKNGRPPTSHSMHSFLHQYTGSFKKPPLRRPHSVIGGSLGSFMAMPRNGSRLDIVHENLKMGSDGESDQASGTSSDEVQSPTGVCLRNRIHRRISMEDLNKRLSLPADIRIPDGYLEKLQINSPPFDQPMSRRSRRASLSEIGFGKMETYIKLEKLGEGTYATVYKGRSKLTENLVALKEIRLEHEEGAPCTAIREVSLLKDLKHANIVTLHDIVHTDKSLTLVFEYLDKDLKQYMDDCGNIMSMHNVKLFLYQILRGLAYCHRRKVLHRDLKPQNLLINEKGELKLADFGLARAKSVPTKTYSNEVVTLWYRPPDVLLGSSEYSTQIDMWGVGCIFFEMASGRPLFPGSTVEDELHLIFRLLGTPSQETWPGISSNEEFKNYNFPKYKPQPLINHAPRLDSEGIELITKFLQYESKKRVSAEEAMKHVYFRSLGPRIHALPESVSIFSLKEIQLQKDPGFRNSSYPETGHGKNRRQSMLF
Chain of Hepatocyte growth factor receptor (Homo sapiens) (P08581 whole entry): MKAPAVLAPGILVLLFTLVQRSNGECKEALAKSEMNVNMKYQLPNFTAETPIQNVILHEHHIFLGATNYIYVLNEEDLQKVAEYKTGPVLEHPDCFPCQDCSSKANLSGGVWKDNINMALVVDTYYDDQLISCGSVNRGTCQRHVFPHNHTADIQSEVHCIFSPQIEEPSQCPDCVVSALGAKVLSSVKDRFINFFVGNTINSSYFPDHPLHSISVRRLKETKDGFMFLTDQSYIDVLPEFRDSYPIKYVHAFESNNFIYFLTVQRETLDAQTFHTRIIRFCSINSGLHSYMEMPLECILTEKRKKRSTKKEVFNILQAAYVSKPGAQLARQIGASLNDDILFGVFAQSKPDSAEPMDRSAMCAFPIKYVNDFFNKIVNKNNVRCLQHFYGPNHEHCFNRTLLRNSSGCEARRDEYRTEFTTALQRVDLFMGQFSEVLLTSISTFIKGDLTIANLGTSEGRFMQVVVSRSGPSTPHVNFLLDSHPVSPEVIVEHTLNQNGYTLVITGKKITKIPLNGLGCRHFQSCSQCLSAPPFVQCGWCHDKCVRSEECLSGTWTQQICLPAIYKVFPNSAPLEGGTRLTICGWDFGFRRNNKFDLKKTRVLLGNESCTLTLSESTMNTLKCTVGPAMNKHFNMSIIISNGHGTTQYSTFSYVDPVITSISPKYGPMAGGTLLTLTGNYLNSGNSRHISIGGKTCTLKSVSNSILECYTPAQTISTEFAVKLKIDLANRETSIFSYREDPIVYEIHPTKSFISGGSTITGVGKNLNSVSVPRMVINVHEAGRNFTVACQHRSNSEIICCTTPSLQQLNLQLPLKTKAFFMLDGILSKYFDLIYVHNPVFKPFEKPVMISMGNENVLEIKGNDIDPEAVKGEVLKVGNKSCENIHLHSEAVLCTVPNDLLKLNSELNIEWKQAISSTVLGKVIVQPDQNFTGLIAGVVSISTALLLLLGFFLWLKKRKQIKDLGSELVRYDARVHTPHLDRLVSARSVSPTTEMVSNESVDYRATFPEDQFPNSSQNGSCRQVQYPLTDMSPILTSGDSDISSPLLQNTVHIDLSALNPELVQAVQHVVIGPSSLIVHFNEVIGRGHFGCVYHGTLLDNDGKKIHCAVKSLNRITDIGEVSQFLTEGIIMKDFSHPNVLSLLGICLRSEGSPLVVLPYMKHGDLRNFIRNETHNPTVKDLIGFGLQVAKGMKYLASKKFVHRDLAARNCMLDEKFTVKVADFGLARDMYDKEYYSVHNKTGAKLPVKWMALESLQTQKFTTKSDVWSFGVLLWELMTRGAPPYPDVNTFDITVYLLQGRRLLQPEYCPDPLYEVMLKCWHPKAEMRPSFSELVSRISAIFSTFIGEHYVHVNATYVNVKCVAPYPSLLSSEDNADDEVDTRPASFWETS

Structure (SMILES) | Activity [1] | Activity [2] | Activity [3] | Activity [4] | Activity [5] | Activity [6] | Activity [7] | Activity [8] | Activity [9]
COc1cc2ncnc(N[C@H](C)c3cccc4ccccc34)c2cc1OC | 100% | 100% | 100% | 88% | 96% | 83% | 83% | 100% | 97%
COc1cc2nc(C)nc(N[C@H](C)c3cccc(-c4cn[nH]c4)c3)c2cc1OC | 91% | 84% | 97% | 96% | 99% | 100% | 86% | 83% | 97%

— ChEMBL document CHEMBL5678818, “Discovery of potent SOS1 inhibitors that block RAS activation via disruption of the RAS-SOS1 interaction” (Proc Natl Acad Sci U S A, 2019)
